Data on 37 molecules can be found in ChEMBL document CHEMBL1131552, “Identification of side chains on 1,2,5-thiadiazole-azacycles optimal for muscarinic m1 receptor activation” (Bioorg Med Chem Lett, 1998).

Test [1] deals with Muscarinic acetylcholine receptor.
Test [2] in a line: Potency ratio of EC50 of the CHO cell lines to that of A9L cell lines was calculated. In kind it is functional.
Test [3] addresses T1, Muscarinic acetylcholine receptor M2 (Homo sapiens, UniProt P08172).
T1 sequence (P08172 whole entry): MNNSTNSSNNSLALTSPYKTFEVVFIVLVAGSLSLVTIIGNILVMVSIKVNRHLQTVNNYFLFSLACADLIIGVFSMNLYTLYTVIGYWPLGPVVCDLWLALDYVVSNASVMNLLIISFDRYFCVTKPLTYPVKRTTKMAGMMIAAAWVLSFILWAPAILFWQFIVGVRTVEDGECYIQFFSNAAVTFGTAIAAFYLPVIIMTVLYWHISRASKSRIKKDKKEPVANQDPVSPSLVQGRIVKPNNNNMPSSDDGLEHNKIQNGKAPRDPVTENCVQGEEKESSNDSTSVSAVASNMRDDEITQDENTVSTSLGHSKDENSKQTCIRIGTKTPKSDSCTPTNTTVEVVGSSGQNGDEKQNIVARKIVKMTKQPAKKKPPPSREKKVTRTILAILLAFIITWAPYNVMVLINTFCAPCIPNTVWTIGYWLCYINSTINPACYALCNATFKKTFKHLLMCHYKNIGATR
Description: Stimulation of cAMP in CHO cells expressing human m2 receptor

Test [4] has as its target T2, Muscarinic acetylcholine receptor M1 (Homo sapiens, UniProt P11229).
T2 sequence (P11229 whole entry): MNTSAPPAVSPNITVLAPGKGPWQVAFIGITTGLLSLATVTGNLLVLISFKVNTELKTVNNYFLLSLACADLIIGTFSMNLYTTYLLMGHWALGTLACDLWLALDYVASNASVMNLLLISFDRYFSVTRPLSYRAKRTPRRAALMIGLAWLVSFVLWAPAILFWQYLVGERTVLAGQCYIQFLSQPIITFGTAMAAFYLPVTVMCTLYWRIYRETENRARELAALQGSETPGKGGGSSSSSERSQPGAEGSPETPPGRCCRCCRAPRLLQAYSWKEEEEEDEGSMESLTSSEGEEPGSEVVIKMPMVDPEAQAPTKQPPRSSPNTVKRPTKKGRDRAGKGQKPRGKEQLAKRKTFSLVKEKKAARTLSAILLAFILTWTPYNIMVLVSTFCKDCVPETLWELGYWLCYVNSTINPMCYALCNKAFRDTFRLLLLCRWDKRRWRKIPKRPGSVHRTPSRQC
Description: Stimulation of phosphoinositide hydrolysis in A9L cells expressing human m1 receptor

The target in test [5] is Muscarinic acetylcholine receptor. The experiment in a line: Binding affinity against muscarinic receptor in rat brain membranes using oxotremorine-M as ligand. It counts as cell membranes.
The target of test [6] is T3, Muscarinic acetylcholine receptor M1 (Homo sapiens) (UniProt P11229).
T3 sequence (whole entry): T2 sequence (P11229 whole entry)
Kind of test: Stimulation of phosphoinositide hydrolysis in BHK cells. In kind it is functional, cell-based.

Test [7] deals with T2, Muscarinic acetylcholine receptor M1. Kind of test: Effective concentration required for stimulation of phosphoinositide hydrolysis in A9L cells expressing human m1 receptor. It counts as functional, cell-based.

Broadly, the IC50 is the concentration needed to halve the response being measured. Molecule `CCCCCCCOc1nsnc1C1=CCCN(C)C1` showed an IC50 in test [1] of 6.2 nM. That is a single-digit nanomolar value. Same read-out and setting: as for `CN1CCC=C(c2nsnc2SCc2ccccc2)C1`, the figure is 5.9 nM; as for `CCCCCOc1nsnc1C1=CCCN(C)C1`, 2 nM; as for `COc1nsnc1C1=CCCN(C)C1`, 22 nM. On the same count and under the same terms, the same measure for `CCCCCCOc1nsnc1[C@H]1CN2CCC[C@H]1C2`: 1.2 nM. What is called EC50 is the midpoint of the concentration-response curve. In the case of `CN1CCC=C(c2nsnc2OCC#Cc2ccccc2)C1`, in test [2], the Potency ratio is on record as 2. Further, the EC50 in test [3] is 240 nM; in test [4] it was 110 nM. Besides, the half-inhibitory concentration (IC50) in test [1] is listed as 8.5 nM. `c1ccc(CCCSc2nsnc2[C@H]2CN3CC[C@H]2C3)cc1` had an IC50 in test [1] of 1.7 nM. That is a single-digit nanomolar value.

`C(#Cc1ccccc1)COc1nsnc1[C@H]1CN2CCC1C2` (stereo not given in full): the EC50 in test [3] is 11 nM; in test [4], 0.99 nM. In addition, the IC50 in test [1] was 0.8 nM. On to `C(#Cc1ccccc1)COc1nsnc1[C@H]1CN2CCC[C@H]1C2`, for which the concentration giving a half-maximal response (EC50) in test [3] was determined as 9 nM; in test [4] it was 0.5 nM. This molecule also came in with an IC50 in test [1] of 1.2 nM. Take `CN1CCC=C(c2nsnc2OCCCCc2ccccc2)C1`: the IC50 in test [1] is 20 nM.

Molecule `CCOc1nsnc1C1=CCCN(C)C1` registered an IC50 in test [1] of 5.7 nM. With `C(#Cc1ccccc1)COc1nsnc1[C@H]1CN2CCC[C@@H]1C2`, the concentration giving a half-maximal response (EC50) in test [3] was 2250 nM. The molecule also returned a 50% inhibitory concentration (IC50) in test [1] of 78 nM. On to `CN1CCC=C(c2nsnc2SCCc2ccccc2)C1`, for which the 50% inhibitory concentration (IC50) in test [1] was 23 nM. For `C(#Cc1ccccc1)COc1nsnc1[C@@H]1CN2CCC[C@@H]1C2`, the half-inhibitory concentration (IC50) in test [5] is recorded as 3.4 nM. Besides, the response in test [3] was half-maximal at 29 nM (EC50). In test [1], `c1ccc(CCCSc2nsnc2C2CN3CCC2CC3)cc1` (stereo not given) displayed an IC50 of 14 nM. Still for that read-out and setting: as for `CN1CCC=C(c2nsnc2OCCCc2ccccc2)C1`, the figure is 13 nM. With `C(#Cc1ccccc1)CSc1nsnc1[C@@H]1CN2CC[C@H]1C2`, the EC50 in test [3] was 139 nM; in test [4], over 100 nM. Also, the IC50 in test [1] is given as 42 nM. With `CCCCCCOc1nsnc1[C@@H]1CN2CC[C@H]1C2` (stereo in doubt; 26), the concentration for half-maximal inhibition (IC50) in test [1] is recorded as 6 nM. In other words, the single-digit nanomolar range. The same measure, in the same setting: the same measure for `CCCCCCCCOc1nsnc1C1=CCCN(C)C1`: 30 nM. As to `C(#Cc1ccccc1)COc1nsnc1[C@@H]1CN2CCC[C@H]1C2`, the results for the 50% effective concentration (EC50) in test [3] and in test [4] were 227 nM and 28.3 nM, respectively. In test [1], this molecule registered an IC50 of 66 nM.

Turning to `C(#Cc1ccccc1)COc1nsnc1[C@@H]1CN2CC[C@H]1C2`, the EC50 was 1100 nM in test [3] and 67.3 nM in test [4]. In test [1], this molecule gave an IC50 of 20 nM. The corresponding values for `C(#Cc1ccccc1)COc1nsnc1C1CN2CCC1CC2` (stereo not given) are 62 nM, 15.7 nM and 4.7 nM. Regarding `COc1cccc(C#CCO/N=C2\CN3CCC2C3)c1` (stereo not given), the concentration giving a half-maximal response (EC50) in test [3] was 28000 nM; in test [4] it was over 1000 nM. The same molecule registered a Max PI in test [6] of 14%. In test [1], this molecule came in with a half-inhibitory concentration (IC50) of 167 nM. `CCCCCCOc1nsnc1[C@H]1CN2CC[C@H]1C2` gave an IC50 in test [1] of 0.73 nM. Same read-out and setting: the same measure for `CN1CCC=C(c2nsnc2OCCc2ccccc2)C1`: 15 nM. The same measure, in the same setting: as for `c1ccc(CCCSc2nsnc2[C@H]2CN3CCC[C@H]2C3)cc1`, the figure is 1.3 nM. Regarding `C(#Cc1ccccc1)CSc1nsnc1[C@@H]1CN2CCC[C@H]1C2`, the EC50 is over 10000 nM in test [3] and 1 nM in test [4]. Further, in test [1], the half-maximal inhibitory concentration (IC50) came out at 363 nM.

As to `CCCCCCOc1nsnc1[C@@H]1CN2CC[C@H]1C2` (stereo in doubt; 13), the 50% inhibitory concentration (IC50) in test [1] worked out at 16 nM. Still for that read-out and setting: as for `CCCCCCOc1nsnc1C1CN2CCC1CC2` (stereo not given), the figure is 4.3 nM; as for `CCCOc1nsnc1C1=CCCN(C)C1`, 1.6 nM. Same read-out and setting: as for `CN1CCC=C(c2nsnc2SCCCc2ccccc2)C1`, the figure is 1.3 nM.

Turning to `C(#Cc1ccccc1)COc1nsnc1C12CN3CC1C2C3`, the EC50 in test [3] was found to be 779 nM; in test [4], 70.5 nM. The molecule further had a half-inhibitory concentration (IC50) in test [1] of 14 nM. For `C(#Cc1ccccc1)CSc1nsnc1[C@H]1CN2CCC[C@H]1C2`, the EC50 in test [3] came out at 2 nM; in test [7], 0.2 nM. The molecule also had a half-inhibitory concentration (IC50) in test [1] of 1.7 nM. For the molecule `C(#Cc1ccccc1)COc1nsnc1[C@H]1CN2CC[C@@H]1C2`, the concentration giving a half-maximal response (EC50) in test [3] amounted to 1080 nM; in test [4] it was 159 nM. Besides, in test [1], the IC50 is on record as 41 nM. As to `CN1CCC=C(c2nsnc2OCc2ccccc2)C1`, the IC50 in test [1] is 8 nM. Still for that read-out and setting: the same measure for `CCCCCCOc1nsnc1[C@@H]1CN2CCC[C@H]1C2`: 63 nM. Still for that read-out and setting: the same measure for `c1ccc(CCCSc2nsnc2[C@@H]2CN3CCC[C@H]2C3)cc1`: 35 nM.
